Reference: PMC9898036, “VIP152 is a selective CDK9 inhibitor with pre-clinical in vitro and in vivo efficacy in chronic lymphocytic leukemia” (Leukemia, 2022)

Legend:
Experiment in all cases: DiscoverX KINOMEscan kinase profiling (468 assays)
Format in all cases: binding
human kinome [1] = target: human kinome (Homo sapiens, UniProt Q9BVS4); settings: kinase RIOK2 (Entrez RIOK2); compound concentration 1000 nM; read-out: Percent Control
Method in brief: (§1)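 VIP152 was run in DMSO, alongside a DMSO control. Readout was qPCR of DNA-tagged kinase still bound to bead-immobilized biotinylated kinase ligands after compound competition.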

human kinome [2] = target: human kinome (Homo sapiens, UniProt Q9H3Y6); settings: kinase SRMS (Entrez SRMS); compound concentration 1000 nM; read-out: Percent Control
Method in brief: as §1

human kinome [3] = target: human kinome (Homo sapiens, UniProt P37173); settings: kinase TGFBR2 (Entrez TGFBR2); compound concentration 1000 nM; read-out: Percent Control
Method in brief: as §1

human kinome [4] = target: human kinome (Homo sapiens, UniProt P0C264); settings: kinase SgK110 (Entrez SgK110); compound concentration 1000 nM; read-out: Percent Control
Method in brief: as §1

human kinome [5] = target: human kinome (Homo sapiens, UniProt Q9H093); settings: kinase SNARK (Entrez NUAK2); compound concentration 1000 nM; read-out: Percent Control
Method in brief: as §1

human kinome [6] = target: human kinome (Homo sapiens, UniProt Q15208); settings: read-out: Percent Control
Method in brief: as §1

human kinome [7] = target: human kinome (Homo sapiens, UniProt Q9HAZ1); settings: CLK4; 100 nM; read-out: Percent Control
Method in brief: as §1

human kinome [8] = target: human kinome (Homo sapiens, UniProt Q9BYT3); settings: kinase STK33 (Entrez STK33); compound concentration 1000 nM; read-out: Percent Control
Method in brief: as §1

human kinome [9] = target: human kinome (Homo sapiens, UniProt Q96D53); settings: ADCK4; 100 nM; read-out: Percent Control
Method in brief: as §1

human kinome [10] = target: human kinome (Homo sapiens, UniProt Q13873); settings: BMPR2; 100 nM; read-out: Percent Control
Method in brief: as §1

human kinome [11] = target: human kinome (Homo sapiens, UniProt Q9Y616); settings: IRAK3; 100 nM; read-out: Percent Control
Method in brief: as §1

human kinome [12] = target: human kinome (Homo sapiens, UniProt P27037); settings: ACVR2A; 100 nM; read-out: Percent Control
Method in brief: as §1

human kinome [13] = target: human kinome (Homo sapiens, UniProt P45983); settings: JNK1 (Entrez MAPK8); 100 nM; read-out: Percent Control
Method in brief: as §1

human kinome [14] = target: human kinome (Homo sapiens, UniProt O15530); settings: read-out: Percent Control
Method in brief: as §1

human kinome [15] = target: human kinome (Homo sapiens, UniProt Q96BR1); settings: kinase SGK3 (Entrez SGK3); compound concentration 1000 nM; read-out: Percent Control
Method in brief: as §1

human kinome [16] = target: human kinome (Homo sapiens, UniProt Q14680); settings: MELK; 100 nM; read-out: Percent Control
Method in brief: as §1

human kinome [17] = target: human kinome (Homo sapiens, UniProt Q86Z02); settings: HIPK1; 100 nM; read-out: Percent Control
Method in brief: as §1

human kinome [18] = target: human kinome (Homo sapiens, UniProt Q9BRS2); settings: kinase RIOK1 (Entrez RIOK1); compound concentration 1000 nM; read-out: Percent Control
Method in brief: as §1

human kinome [19] = target: human kinome (Homo sapiens, UniProt P80192); settings: MLK1 (Entrez MAP3K9); 100 nM; read-out: Percent Control
Method in brief: as §1

human kinome [20] = target: human kinome (Homo sapiens, UniProt P23443); settings: kinase S6K1 (Entrez RPS6KB1); compound concentration 1000 nM; read-out: Percent Control
Method in brief: as §1

human kinome [21] = target: human kinome (Homo sapiens, UniProt O14733); settings: MKK7 (Entrez MAP2K7); 100 nM; read-out: Percent Control
Method in brief: as §1

human kinome [22] = target: human kinome (Homo sapiens, UniProt P08069); settings: IGF1R; 100 nM; read-out: Percent Control
Method in brief: as §1

human kinome [23] = target: human kinome (Homo sapiens, UniProt P42681); settings: kinase TXK (Entrez TXK); compound concentration 1000 nM; read-out: Percent Control
Method in brief: as §1

human kinome [24] = target: human kinome (Homo sapiens, UniProt P42336, H1047L); settings: read-out: Percent Control
Method in brief: as §1

human kinome [25] = target: human kinome (Homo sapiens, UniProt Q86Y07); settings: kinase VRK2 (Entrez VRK2); compound concentration 1000 nM; read-out: Percent Control
Method in brief: as §1

human kinome [26] = target: human kinome (Homo sapiens, UniProt O60331); settings: read-out: Percent Control
Method in brief: as §1

human kinome [27] = target: human kinome (Homo sapiens, UniProt Q96PY6); settings: read-out: Percent Control
Method in brief: as §1

human kinome [28] = target: human kinome (Homo sapiens, UniProt P45984); settings: JNK2 (Entrez MAPK9); 100 nM; read-out: Percent Control
Method in brief: as §1

human kinome [29] = target: human kinome (Homo sapiens, UniProt Q9H2G2); settings: kinase SLK (Entrez SLK); compound concentration 1000 nM; read-out: Percent Control
Method in brief: as §1

human kinome (Homo sapiens, UniProt Q96PY6), sequence (Q96PY6 whole entry): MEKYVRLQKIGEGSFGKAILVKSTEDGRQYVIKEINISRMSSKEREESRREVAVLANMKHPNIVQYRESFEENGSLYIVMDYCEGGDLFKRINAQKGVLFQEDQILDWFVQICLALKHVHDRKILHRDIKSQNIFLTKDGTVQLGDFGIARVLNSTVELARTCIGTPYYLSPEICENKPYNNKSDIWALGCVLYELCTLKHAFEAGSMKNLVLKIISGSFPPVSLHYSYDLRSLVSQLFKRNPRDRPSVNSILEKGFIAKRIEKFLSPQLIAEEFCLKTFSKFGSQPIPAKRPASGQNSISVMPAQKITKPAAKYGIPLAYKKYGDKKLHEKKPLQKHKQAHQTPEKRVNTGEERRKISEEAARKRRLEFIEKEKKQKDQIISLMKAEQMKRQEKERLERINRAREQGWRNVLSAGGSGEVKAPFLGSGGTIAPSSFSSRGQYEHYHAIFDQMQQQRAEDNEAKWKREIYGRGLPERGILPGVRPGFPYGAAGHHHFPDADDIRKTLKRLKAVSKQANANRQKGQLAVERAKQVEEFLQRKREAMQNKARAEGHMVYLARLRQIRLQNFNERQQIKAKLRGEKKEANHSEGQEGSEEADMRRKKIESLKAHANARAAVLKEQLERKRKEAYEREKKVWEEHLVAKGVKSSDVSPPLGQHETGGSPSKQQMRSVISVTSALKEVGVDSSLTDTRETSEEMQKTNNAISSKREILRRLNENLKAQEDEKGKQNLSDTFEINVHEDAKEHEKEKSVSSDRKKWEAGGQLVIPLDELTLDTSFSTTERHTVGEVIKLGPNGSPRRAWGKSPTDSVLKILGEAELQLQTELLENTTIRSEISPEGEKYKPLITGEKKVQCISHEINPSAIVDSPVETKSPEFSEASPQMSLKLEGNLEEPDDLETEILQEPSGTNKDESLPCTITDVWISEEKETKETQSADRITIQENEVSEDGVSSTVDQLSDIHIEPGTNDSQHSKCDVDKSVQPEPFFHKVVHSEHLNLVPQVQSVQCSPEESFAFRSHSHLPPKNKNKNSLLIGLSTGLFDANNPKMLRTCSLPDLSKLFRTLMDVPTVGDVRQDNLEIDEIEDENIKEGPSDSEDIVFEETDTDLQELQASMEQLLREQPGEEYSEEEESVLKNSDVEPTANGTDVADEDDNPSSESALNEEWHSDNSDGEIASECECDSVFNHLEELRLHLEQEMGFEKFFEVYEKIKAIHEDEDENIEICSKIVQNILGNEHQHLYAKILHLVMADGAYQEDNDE
human kinome (Homo sapiens, UniProt O60331), sequence (O60331 whole entry): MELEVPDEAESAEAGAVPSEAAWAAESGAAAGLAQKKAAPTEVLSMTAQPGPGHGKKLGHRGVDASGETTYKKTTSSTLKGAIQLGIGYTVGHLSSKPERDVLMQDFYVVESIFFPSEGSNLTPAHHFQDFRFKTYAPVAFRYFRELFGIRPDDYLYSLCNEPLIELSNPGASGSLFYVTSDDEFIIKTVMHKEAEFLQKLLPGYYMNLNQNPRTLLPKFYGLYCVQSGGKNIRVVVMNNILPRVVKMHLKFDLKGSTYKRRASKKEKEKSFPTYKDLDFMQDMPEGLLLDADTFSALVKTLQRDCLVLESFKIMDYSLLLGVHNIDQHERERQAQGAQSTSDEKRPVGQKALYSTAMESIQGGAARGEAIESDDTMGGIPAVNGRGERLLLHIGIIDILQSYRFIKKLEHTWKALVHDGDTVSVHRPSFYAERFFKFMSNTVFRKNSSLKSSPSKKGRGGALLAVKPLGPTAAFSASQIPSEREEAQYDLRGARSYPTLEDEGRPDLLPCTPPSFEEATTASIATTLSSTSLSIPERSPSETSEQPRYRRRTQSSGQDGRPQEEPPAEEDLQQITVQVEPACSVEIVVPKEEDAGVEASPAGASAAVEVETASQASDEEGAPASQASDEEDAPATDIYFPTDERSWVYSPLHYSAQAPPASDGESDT
human kinome (Homo sapiens, UniProt O15530), sequence (O15530 whole entry): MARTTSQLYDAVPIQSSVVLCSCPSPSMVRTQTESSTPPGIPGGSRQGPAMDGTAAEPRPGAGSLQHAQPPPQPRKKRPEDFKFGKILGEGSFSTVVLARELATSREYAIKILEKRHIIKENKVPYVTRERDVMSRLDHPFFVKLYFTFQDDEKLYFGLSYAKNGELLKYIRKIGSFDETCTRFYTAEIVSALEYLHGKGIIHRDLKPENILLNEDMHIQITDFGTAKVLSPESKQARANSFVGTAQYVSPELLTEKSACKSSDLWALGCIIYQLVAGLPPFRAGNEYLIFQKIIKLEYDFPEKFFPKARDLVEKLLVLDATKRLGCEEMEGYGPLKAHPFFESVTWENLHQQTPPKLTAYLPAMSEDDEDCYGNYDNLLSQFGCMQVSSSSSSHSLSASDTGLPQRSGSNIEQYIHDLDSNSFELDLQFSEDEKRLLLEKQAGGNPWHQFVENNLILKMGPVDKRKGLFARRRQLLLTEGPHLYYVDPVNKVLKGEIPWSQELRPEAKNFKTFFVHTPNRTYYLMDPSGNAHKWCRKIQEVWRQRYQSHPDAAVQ
human kinome (Homo sapiens, UniProt Q15208), sequence (Q15208 whole entry): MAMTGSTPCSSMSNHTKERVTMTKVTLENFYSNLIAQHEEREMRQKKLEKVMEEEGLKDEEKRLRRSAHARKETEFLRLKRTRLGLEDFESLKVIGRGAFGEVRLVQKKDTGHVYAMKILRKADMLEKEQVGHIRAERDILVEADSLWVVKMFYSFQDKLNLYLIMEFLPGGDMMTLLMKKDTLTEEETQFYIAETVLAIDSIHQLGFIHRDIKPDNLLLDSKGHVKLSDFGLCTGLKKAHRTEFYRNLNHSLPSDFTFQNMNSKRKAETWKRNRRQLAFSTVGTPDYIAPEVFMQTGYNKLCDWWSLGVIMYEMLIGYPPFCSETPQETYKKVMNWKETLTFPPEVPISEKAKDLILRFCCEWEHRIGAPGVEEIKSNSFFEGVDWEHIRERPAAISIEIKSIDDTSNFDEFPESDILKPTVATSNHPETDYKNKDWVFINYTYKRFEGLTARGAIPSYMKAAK
human kinome (Homo sapiens, UniProt P42336, H1047L), sequence (P42336 whole entry H1047L): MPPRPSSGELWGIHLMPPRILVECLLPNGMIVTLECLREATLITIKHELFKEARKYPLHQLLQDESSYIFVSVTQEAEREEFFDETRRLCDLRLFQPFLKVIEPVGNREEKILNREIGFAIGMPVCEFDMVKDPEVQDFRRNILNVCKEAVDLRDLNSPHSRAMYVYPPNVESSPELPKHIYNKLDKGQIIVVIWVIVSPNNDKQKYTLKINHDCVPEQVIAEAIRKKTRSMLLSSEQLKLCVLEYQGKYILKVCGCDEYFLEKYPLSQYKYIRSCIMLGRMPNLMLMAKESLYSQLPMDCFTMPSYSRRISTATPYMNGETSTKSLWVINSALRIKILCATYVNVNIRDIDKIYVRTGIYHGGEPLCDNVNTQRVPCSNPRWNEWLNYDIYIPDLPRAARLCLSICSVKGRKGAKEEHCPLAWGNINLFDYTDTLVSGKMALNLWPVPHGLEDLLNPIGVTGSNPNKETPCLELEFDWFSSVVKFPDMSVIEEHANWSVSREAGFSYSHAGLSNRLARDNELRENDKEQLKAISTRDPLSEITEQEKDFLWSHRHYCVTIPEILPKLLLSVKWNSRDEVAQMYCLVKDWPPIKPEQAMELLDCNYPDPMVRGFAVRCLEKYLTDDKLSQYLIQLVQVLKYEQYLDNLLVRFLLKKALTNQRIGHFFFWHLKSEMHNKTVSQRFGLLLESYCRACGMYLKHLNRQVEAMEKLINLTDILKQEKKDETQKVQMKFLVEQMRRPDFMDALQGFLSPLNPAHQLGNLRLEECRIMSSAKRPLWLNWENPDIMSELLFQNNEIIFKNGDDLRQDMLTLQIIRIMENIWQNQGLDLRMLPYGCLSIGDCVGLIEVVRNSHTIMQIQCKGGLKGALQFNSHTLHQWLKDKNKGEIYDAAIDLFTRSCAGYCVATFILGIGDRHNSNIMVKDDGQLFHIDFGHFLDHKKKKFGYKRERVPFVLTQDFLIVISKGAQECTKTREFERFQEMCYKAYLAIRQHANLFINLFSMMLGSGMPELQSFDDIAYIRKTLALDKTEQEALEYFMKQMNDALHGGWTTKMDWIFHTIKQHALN
human kinome (Homo sapiens, UniProt P23443), sequence (P23443 whole entry): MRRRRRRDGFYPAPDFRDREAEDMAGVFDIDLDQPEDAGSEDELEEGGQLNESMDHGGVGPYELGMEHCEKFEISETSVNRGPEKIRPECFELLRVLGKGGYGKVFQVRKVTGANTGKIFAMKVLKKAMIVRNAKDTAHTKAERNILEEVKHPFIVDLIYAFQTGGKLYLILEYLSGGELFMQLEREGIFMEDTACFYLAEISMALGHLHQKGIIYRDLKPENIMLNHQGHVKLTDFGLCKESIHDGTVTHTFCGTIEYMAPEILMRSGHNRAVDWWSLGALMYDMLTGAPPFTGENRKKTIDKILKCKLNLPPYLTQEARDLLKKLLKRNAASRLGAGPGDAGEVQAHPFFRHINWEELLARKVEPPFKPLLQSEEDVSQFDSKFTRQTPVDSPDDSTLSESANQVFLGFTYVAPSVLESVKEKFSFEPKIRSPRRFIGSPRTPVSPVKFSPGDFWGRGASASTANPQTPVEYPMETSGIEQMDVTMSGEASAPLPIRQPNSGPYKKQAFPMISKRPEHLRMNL
human kinome (Homo sapiens, UniProt P27037), sequence (P27037 20-513): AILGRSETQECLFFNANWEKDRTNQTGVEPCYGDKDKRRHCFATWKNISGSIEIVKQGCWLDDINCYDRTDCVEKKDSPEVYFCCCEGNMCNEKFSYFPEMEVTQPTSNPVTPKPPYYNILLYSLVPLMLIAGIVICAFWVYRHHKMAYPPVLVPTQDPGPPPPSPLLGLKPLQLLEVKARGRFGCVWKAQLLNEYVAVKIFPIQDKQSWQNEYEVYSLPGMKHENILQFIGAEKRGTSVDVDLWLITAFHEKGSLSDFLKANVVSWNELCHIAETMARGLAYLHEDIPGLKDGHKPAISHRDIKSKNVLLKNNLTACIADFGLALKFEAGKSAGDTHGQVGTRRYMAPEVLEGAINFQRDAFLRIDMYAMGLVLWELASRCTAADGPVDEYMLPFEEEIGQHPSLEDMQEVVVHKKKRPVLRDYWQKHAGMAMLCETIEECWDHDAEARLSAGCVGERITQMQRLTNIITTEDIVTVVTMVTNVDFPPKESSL

Which remaining binding at 1 µM (human kinome [1]) does the source give for `COc1cc(F)ccc1-c1cc(Nc2cc(CS(C)(=N)=O)ccn2)ncc1F` (stereo not shown) [VIP152] here?
The remaining binding at 1 µM was 77%.

And the remaining binding at 1 µM (human kinome [2])?
Its remaining binding at 1 µM is 83%.

And the remaining binding at 1 µM (human kinome [3])?
Its remaining binding at 1 µM is 93%.

What about the remaining binding at 1 µM (human kinome [4]) of the same compound?
The remaining binding at 1 µM was 100%.

What about the remaining binding at 1 µM (human kinome [5]) of the same compound?
The remaining binding at 1 µM was 78%.

And the remaining binding at 0.1 µM (human kinome [6]; NDR1 (Entrez STK38), 100 nM)?
Its remaining binding at 0.1 µM is 100%.

What about the remaining binding at 1 µM (human kinome [6]; kinase NDR1 (Entrez STK38), compound concentration 1000 nM) of the same compound?
Its remaining binding at 1 µM is 93%.

What about the remaining binding at 0.1 µM (human kinome [7]) of the same compound?
The remaining binding at 0.1 µM was 100%.

And the remaining binding at 1 µM (human kinome [8])?
The remaining binding at 1 µM was 84%.

And the remaining binding at 0.1 µM (human kinome [9])?
The remaining binding at 0.1 µM was 100%.

And the remaining binding at 0.1 µM (human kinome [10])?
Its remaining binding at 0.1 µM is 99%.

And the remaining binding at 0.1 µM (human kinome [11])?
Its remaining binding at 0.1 µM is 90%.

What about the remaining binding at 0.1 µM (human kinome [12]) of the same compound?
Its remaining binding at 0.1 µM is 91%.

And the remaining binding at 0.1 µM (human kinome [13])?
Its remaining binding at 0.1 µM is 98%.

What about the remaining binding at 0.1 µM (human kinome [14]; PDPK1, 100 nM) of the same compound?
Its remaining binding at 0.1 µM is 100%.

And the remaining binding at 1 µM (human kinome [14]; kinase PDPK1 (Entrez PDPK1), compound concentration 1000 nM)?
Its remaining binding at 1 µM is 100%.

And the remaining binding at 1 µM (human kinome [15])?
The remaining binding at 1 µM was 60%.

What about the remaining binding at 0.1 µM (human kinome [16]) of the same compound?
Its remaining binding at 0.1 µM is 91%.

And the remaining binding at 0.1 µM (human kinome [17])?
The remaining binding at 0.1 µM was 63%.

What about the remaining binding at 1 µM (human kinome [18]) of the same compound?
The remaining binding at 1 µM was 79%.

And the remaining binding at 0.1 µM (human kinome [19])?
The remaining binding at 0.1 µM was 100%.

What about the remaining binding at 1 µM (human kinome [20]) of the same compound?
Its remaining binding at 1 µM is 100%.

What about the remaining binding at 0.1 µM (human kinome [21]) of the same compound?
Its remaining binding at 0.1 µM is 86%.

What about the remaining binding at 0.1 µM (human kinome [22]) of the same compound?
Its remaining binding at 0.1 µM is 79%.

What about the remaining binding at 1 µM (human kinome [23]) of the same compound?
The remaining binding at 1 µM was 83%.

What about the remaining binding at 0.1 µM (human kinome [24]; PIK3CA(H1047L), 100 nM) of the same compound?
Its remaining binding at 0.1 µM is 100%.

And the remaining binding at 1 µM (human kinome [24]; kinase PIK3CA(H1047L) (Entrez PIK3CA), compound concentration 1000 nM)?
Its remaining binding at 1 µM is 100%.

What about the remaining binding at 1 µM (human kinome [25]) of the same compound?
Its remaining binding at 1 µM is 81%.

And the remaining binding at 0.1 µM (human kinome [26]; PIP5K1C, 100 nM)?
Its remaining binding at 0.1 µM is 60%.

What about the remaining binding at 1 µM (human kinome [26]; kinase PIP5K1C (Entrez PIP5K1C), compound concentration 1000 nM) of the same compound?
The remaining binding at 1 µM was 92%.

What about the remaining binding at 0.1 µM (human kinome [27]; NEK1, 100 nM) of the same compound?
Its remaining binding at 0.1 µM is 100%.

And the remaining binding at 1 µM (human kinome [27]; kinase NEK1 (Entrez NEK1), compound concentration 1000 nM)?
The remaining binding at 1 µM was 99%.

And the remaining binding at 0.1 µM (human kinome [28])?
Its remaining binding at 0.1 µM is 89%.

And the remaining binding at 1 µM (human kinome [29])?
Its remaining binding at 1 µM is 16%.
